The values that follow come from paper PMC9687610, “Adenosine-Mimicking Derivatives of 3-Aminopyrazine-2-Carboxamide: Towards Inhibitors of Prolyl-tRNA Synthetase with Antimycobacterial Activity” (Biomolecules, 2022).

In data set [1] the test system is Staphylococcus epidermidis CCM 4418 (ATCC 12228). Nature of the data set: Antibacterial microdilution broth (EUCAST), SE. In kind it is cell-based. Conditions: read after 24 h, read-out: SE MIC.
The subject of data set [2] is Candida parapsilosis CCM 8260 (ATCC 22019). The data set can be described thus: Antifungal microdilution broth (EUCAST), CP. In kind it is cell-based. As to conditions: Lodderomyces parapsilosis; read after 24 h; read-out: CP MIC.
Data set [3] has as its system Mycobacterium tuberculosis H37Ra ITM-M006710 (ATCC 9431). Nature of the data set: Microplate Alamar Blue Assay (MABA), Mtb H37Ra. In kind it is cell-based. Conditions: Mycobacterium tuberculosis, 120 h, pH 6.6, MABA, Middlebrook 7H9 broth pH 6.6, resazurin after 120 h; read-out: Mtb H37Ra MIC.
Data set [4] deals with Candida tropicalis CCM 8264 (ATCC 750). Nature of the data set: Antifungal microdilution broth (EUCAST), CT. In kind it is cell-based. As to conditions: Candida tropicalis; read after 24 h; read-out: CT MIC.
Data set [5] has as its system Enterococcus faecalis CCM 4224 (ATCC 29212). The data set can be described thus: Antibacterial microdilution broth (EUCAST), EF. In kind it is cell-based. Conditions: Enterococcus faecalis; read after 24 h; read-out: EF MIC.
In data set [6] the test system is Klebsiella pneumoniae CCM 4415 (ATCC 10031). Nature of the data set: Antibacterial microdilution broth (EUCAST), KP. As to conditions: read after 24 h.
In data set [7] the test system is Mycobacterium smegmatis DSM 43465 (ATCC 607). The data set can be described thus: Microplate Alamar Blue Assay (MABA), M. smegmatis. As to conditions: Mycolicibacterium smegmatis, read-out: M. smegmatis MIC. In kind it is cell-based.
Data set [8] relates to Staphylococcus aureus subsp. aureus CCM 4223 (ATCC 29213). Nature of the data set: Antibacterial microdilution broth (EUCAST), SA. The data set is classed as cell-based. Conditions: Staphylococcus aureus; read after 24 h; read-out: SA MIC.
Data set [9] concerns Candida albicans CCM 8320 (ATCC 24433). The data set can be described thus: Antifungal microdilution broth (EUCAST), CA. The data set is classed as cell-based. Conditions: Candida albicans; read after 24 h; read-out: CA MIC.
In data set [10] the test system is Trichophyton interdigitale CCM 8377 (ATCC 9533). Nature of the data set: Antifungal microdilution broth (EUCAST), TI. The data set is classed as cell-based. As to conditions: Trichophyton interdigitale, 72 h, read-out: TI MIC.
Data set [11] deals with Escherichia coli CCM 3954 (ATCC 25922). The data set can be described thus: Antibacterial microdilution broth (EUCAST), EC. The data set is classed as cell-based. Conditions: Escherichia coli; read after 24 h; read-out: EC MIC.
In data set [12] the test system is Pseudomonas aeruginosa CCM 3955 (ATCC 27853). Nature of the data set: Antibacterial microdilution broth (EUCAST), PA. The data set is classed as cell-based. Conditions: Pseudomonas aeruginosa; read after 24 h; read-out: PA MIC.
For data set [13], the system named is Acinetobacter baumannii DSM 30007 (ATCC 19606). The data set can be described thus: Antibacterial microdilution broth (EUCAST), ACI. In kind it is cell-based. Conditions: Acinetobacter baumannii; read after 24 h; read-out: ACI MIC.
Data set [14] concerns Candida krusei CCM 8271 (ATCC 6258). The data set can be described thus: Antifungal microdilution broth (EUCAST), CK. In kind it is cell-based. Conditions: Pichia kudriavzevii; read after 24 h; read-out: CK MIC.
Data set [15] concerns M. aurum DSM 43999 (ATCC 23366). The data set can be described thus: Microplate Alamar Blue Assay (MABA), M. aurum. The data set is classed as cell-based. Conditions: Mycolicibacterium aurum, read-out: M. aurum MIC.
Data set [16] concerns HepG2 human hepatocellular carcinoma cells. The data set can be described thus: In vitro HepG2 cytotoxicity (CellTiter 96). As to conditions: Homo sapiens, HepG2, 24 h, read-out: HepG2 IC50, 24 h incubation; * limit = highest evaluated concentration (precipitation in medium); ** over the 1000 µM limit.
In data set [17] the test system is Lichtheimia corymbifera CCM 8077. The data set can be described thus: Antifungal microdilution broth (EUCAST), LC. In kind it is cell-based. Conditions: Lichtheimia corymbifera, CCM8077; read after 24 h; read-out: LC MIC.
Data set [18] has as its system Aspergillus flavus CCM 8363. Nature of the data set: Antifungal microdilution broth (EUCAST), AFla. In kind it is cell-based. As to conditions: Aspergillus flavus, CCM8363; read after 24 h; read-out: AFla MIC.
Data set [19] has as its system Aspergillus fumigatus ATCC 204305. Nature of the data set: Antifungal microdilution broth (EUCAST), AF. In kind it is cell-based. As to conditions: Aspergillus fumigatus, ATCC204305; read after 24 h; read-out: AF MIC.
Data set [20] relates to Staphylococcus aureus subsp. aureus methicillin-resistant (MRSA) CCM 4750 (ATCC 43300). Nature of the data set: Antibacterial microdilution broth (EUCAST), MRSA. In kind it is cell-based. As to conditions: Staphylococcus aureus; read after 24 h; read-out: MRSA MIC.

≈ marks a conversion by molar mass, not a printed value. Read-outs that look alike come from different tables or passages of the source. Bounds are passed on as bounds.

`NC(=O)c1nccnc1NC(=O)c1ccc([N+](=O)[O-])cc1` [Compound 21, 3-(4-nitrobenzamido)pyrazine-2-carboxamide] showed a melting point of over 300 °C. The MIC in [1] was over 125 µM. For the same compound, the MIC in data set [2] was over 125 µM. Moreover, in [3], the MIC is 250 µg/mL (≈ 870 µM). The MIC in data set [4] is over 125 µM. Further, the MIC in data set [5] was over 125 µM. The “KP MIC” value in data set [6] is over 125 µM. The MIC in data set [7] (MABA, resazurin after 48 h) is 250 µg/mL (≈ 870 µM). The MIC in data set [8] was over 125 µM. Further, the MIC in data set [9] is over 125 µM. The MIC in data set [10] is over 125 µM. Further, in data set [11], the MIC is over 125 µM. The MIC in data set [12] is over 125 µM. For the same compound, the MIC in [13] is over 125 µM. Besides, in [14], the MIC is over 125 µM. Further, the MIC in data set [15] (MABA, resazurin after 72 h) is at least 500 µg/mL. Further, the IC50 in [16] is over 100 µM. In addition, in data set [17], the MIC was over 125 µM. Besides, the MIC in [18] was over 125 µM. For the same compound, the MIC in [19] was over 125 µM. Besides, the MIC in [20] was over 125 µM.
Compound `COc1ccccc1C(=O)Nc1nccnc1C(N)=O` [Compound 7] yielded a melting point of 205.4 to 206.7 °C. Further, in [1], the MIC is over 500 µM. Also, the MIC in data set [2] is over 500 µM. For the same compound, the MIC in data set [3] was determined as 125 µg/mL (≈ 459 µM). For the same compound, the minimal inhibitory concentration (MIC) in [4] is over 500 µM. The MIC in data set [5] is over 500 µM. Also, the “KP MIC” value in data set [6] is over 500 µM. For the same compound, the MIC in [7] (MABA, resazurin after 48 h) came to 62.5 µg/mL (≈ 230 µM). In addition, the MIC in [8] is over 500 µM. For the same compound, the MIC in data set [9] was over 500 µM. Also, the MIC in data set [10] is over 500 µM. Further, the MIC in [11] is over 500 µM. Also, the MIC in [12] was over 500 µM. For the same compound, the MIC in [13] was over 500 µM. Further, in data set [14], the MIC is over 500 µM. The MIC in data set [15] (MABA, resazurin after 72 h) was at least 500 µg/mL. The IC50 in data set [16] was over 500 µM. In data set [17], the MIC was over 500 µM. Besides, the MIC in data set [18] was over 500 µM. The MIC in data set [19] was over 500 µM. In addition, the MIC in [20] was over 500 µM.
Turning to `Cc1cccc(C(=O)Nc2nccnc2C(N)=O)c1` [Compound 3], the melting point lay in the range of 226.9 to 228.8 °C. Moreover, the MIC in data set [1] is over 500 µM. Further, the MIC in data set [2] was over 500 µM. In addition, the MIC in data set [3] turned out to be 62.5 µg/mL (≈ 244 µM). Moreover, the MIC in [4] was over 500 µM. Moreover, the MIC in data set [5] was over 500 µM. In [6], the “KP MIC” value is listed as over 500 µM. In addition, the MIC in data set [7] (MABA, resazurin after 48 h) was at least 250 µg/mL. Also, the MIC in [8] was over 500 µM. Moreover, in data set [9], the MIC is over 500 µM. For the same compound, the MIC in data set [10] is over 500 µM. Besides, the MIC in data set [11] was over 500 µM. In data set [12], the MIC is over 500 µM. Besides, the MIC in [13] is over 500 µM. Also, the MIC in data set [14] is over 500 µM. The MIC in [15] (MABA, resazurin after 72 h) was at least 250 µg/mL. The half-inhibitory concentration (IC50) in data set [16] is over 100 µM. Also, in [17], the MIC is over 500 µM. Besides, in data set [18], the MIC was over 500 µM. In data set [19], the MIC is over 500 µM. Further, in [20], the MIC was over 500 µM.
In the case of `NC(=O)c1nccnc1NC(=O)c1cc(Cl)cc(Cl)c1` [Compound 19], the melting point is over 300 °C. Also, the MIC in data set [1] was over 500 µM. The MIC in data set [2] is over 500 µM. For the same compound, the MIC in data set [3] was at least 62.5 µg/mL. Moreover, the MIC in data set [4] was over 500 µM. For the same compound, in data set [5], the MIC is over 500 µM. The “KP MIC” value in data set [6] is reported as over 500 µM. The MIC in data set [7] (48 h) was at least 62.5 µg/mL. Further, the MIC in [8] was over 500 µM. Also, the MIC in [9] was over 500 µM. Also, the MIC in data set [10] was over 500 µM. For the same compound, the MIC in [11] is over 500 µM. In addition, the MIC in [12] was over 500 µM. For the same compound, the MIC in data set [13] is over 500 µM. In data set [14], the MIC is over 500 µM. Besides, in [15] (72 h), the MIC is at least 62.5 µg/mL. The IC50 in data set [16] was over 250 µM. In [17], the MIC is over 500 µM. The MIC in data set [18] was over 500 µM. The MIC in data set [19] is over 500 µM. Moreover, in data set [20], the MIC is over 500 µM.
